This is an account of results in patent US8383623B2, “Phthalazin-(2H)-one inhibitors of kinases” (Abbott Laboratories, priority 2010, dated 2013).

The target in the assay is T1, Cdc7 (BEV coexpressed huCDC7/DBF4) (Homo sapiens, UniProt O00311).
T1 construct: made in house; host or cells: BEV (baculovirus expression vector)
The assay is described as follows: Cdc7 enzyme inhibition assay ([33P]-ATP, biotinylated peptide substrate, FlashPlate). The format is biochemical. As to conditions: Ki generated from IC50 assuming ATP-competitive inhibition, apparent ATP Km 0.7 μM; 1 μM ATP, 1 hr. Here is the method:
This example describes the assays that may be used to identify compounds having kinase activity.
Cdc7 (BEV coexpressed huCDC7/DBF4) is prepared internally. Cdc7 assays are conducted as follows with final concentrations as listed. In 384-well v-bottom polypropylene plates, 6 μL compound (2% DMSO), is mixed with 6 μL of Cdc7 (2 ug/mL), and Jerini peptide substrate A-A11 (biotin-C6linker-TPSDSLIYDDGLS) (2 μM), followed by immediate initiation with 6 μL λ-[^33P]-ATP (1 μM, 20 mCi/μmol) using a reaction buffer comprising 25 mM HEPES, pH 7.5, 1 mM DTT, 10 mM MgCl2, 100 μM Na3VO4, 0.075 mg/ml Triton X-100. Reactions are quenched after 1 hr by the addition of 90 μL stop buffer (50 mM EDTA, 2M NaCl). 85 μL of the stopped reactions are transferred to 384-well streptavidin-coated plates (FlashPlate Plus, Perkin Elmer), incubated 30 minutes at room temperature and washed 3 times with 0.05% Tween-20/PBS using an ELX-405 automated plate washer (BioTek), and counted on a TopCount Scintillation Plate Reader (Packard). IC50 values are determined via non-linear regression fitting of enzyme inhibition data and corresponding Ki values are generated assuming ATP-competitive (equilibrium) inhibition and using the experimentally determined apparent ATP Km of 0.7 μM (as determined using the above assay condition, but varying ATP).
Table 1 depicts enzyme inhibition data (Ki) for exemplary compounds. In Table 1, “A” represents a K, of less than 10 nM, “B” represents a K, of between 10 nM and 100 nM, and “C” represents a Ki of greater than 100 nM.

T1 sequence (O00311 whole entry): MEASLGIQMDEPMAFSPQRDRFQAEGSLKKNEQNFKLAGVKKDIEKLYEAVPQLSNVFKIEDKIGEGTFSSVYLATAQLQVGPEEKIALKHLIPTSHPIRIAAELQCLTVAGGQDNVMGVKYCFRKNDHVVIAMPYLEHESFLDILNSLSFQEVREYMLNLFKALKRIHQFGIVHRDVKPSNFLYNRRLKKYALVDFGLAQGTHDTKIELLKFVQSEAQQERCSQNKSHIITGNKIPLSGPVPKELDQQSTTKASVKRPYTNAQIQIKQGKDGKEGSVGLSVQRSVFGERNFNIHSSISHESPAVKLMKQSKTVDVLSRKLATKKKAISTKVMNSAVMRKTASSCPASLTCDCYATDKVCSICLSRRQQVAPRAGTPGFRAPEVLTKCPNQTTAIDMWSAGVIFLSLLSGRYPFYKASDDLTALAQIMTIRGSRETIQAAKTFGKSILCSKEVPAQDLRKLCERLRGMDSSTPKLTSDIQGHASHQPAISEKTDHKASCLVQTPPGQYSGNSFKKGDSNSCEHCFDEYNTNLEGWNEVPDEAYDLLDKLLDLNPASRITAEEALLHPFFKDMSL
T1 sequence (Q9UBU7 whole entry partner): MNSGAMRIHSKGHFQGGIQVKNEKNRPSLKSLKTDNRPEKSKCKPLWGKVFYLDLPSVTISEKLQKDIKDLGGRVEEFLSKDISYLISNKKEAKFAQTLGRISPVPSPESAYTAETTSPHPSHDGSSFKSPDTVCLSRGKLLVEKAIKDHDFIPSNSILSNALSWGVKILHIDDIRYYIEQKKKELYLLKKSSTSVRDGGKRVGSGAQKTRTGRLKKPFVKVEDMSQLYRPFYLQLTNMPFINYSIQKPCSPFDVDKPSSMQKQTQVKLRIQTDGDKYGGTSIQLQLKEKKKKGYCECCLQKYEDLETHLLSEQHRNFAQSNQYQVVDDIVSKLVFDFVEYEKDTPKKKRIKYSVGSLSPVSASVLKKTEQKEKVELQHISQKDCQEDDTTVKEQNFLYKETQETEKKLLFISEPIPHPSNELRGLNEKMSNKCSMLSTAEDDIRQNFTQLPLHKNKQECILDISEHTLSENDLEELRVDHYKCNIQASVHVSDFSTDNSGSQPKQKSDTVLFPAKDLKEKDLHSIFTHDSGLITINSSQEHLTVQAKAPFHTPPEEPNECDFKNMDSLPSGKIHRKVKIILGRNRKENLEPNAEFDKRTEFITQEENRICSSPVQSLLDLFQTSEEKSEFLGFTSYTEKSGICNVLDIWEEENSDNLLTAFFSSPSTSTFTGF

In the case of `O=c1[nH]nc(CC2CCCCN2)c2cc(-c3c[nH]c4ncccc34)ccc12` (stereo not shown) [Example 10, 4-(piperidin-2-ylmethyl)-6-(1H-pyrrolo[2,3-b]pyridin-3-yl)phthalazin-1(2H)-one], the Ki was above 100 nM.
For the compound `O=c1[nH]nc(Cc2ccncc2)c2cc(-c3c[nH]c4ncccc34)ccc12` [Example 5, 4-(pyridin-4-ylmethyl)-6-(1H-pyrrolo[2,3-b]pyridin-3-yl)phthalazin-1(2H)-one], the Ki is below 10 nM.
The result for `O=c1[nH]nc(CC2CCNCC2)c2cc(-c3c[nH]c4ncccc34)ccc12` [Example 9, 4-(piperidin-4-ylmethyl)-6-(1H-pyrrolo[2,3-b]pyridin-3-yl)phthalazin-1(2H)-one] reads 10 to 100 nM.
As to `O=c1[nH]nc(CC2CCCNC2)c2cc(-c3c[nH]c4ncccc34)ccc12` (stereo not shown) [Example 7, 4-(piperidin-3-ylmethyl)-6-(1H-pyrrolo[2,3-b]pyridin-3-yl)phthalazin-1(2H)-one], the Ki was above 100 nM.
The result for `CC(=O)Nc1ccc(Cc2n[nH]c(=O)c3ccc(-c4c[nH]c5ncccc45)cc23)cc1` [Example 12, N-(4-{[4-oxo-7-(1H-pyrrolo[2,3-b]pyridin-3-yl)-3,4-dihydrophthalazin-1-yl]methyl}phenyl)acetamide] reads below 10 nM; that for `Cn1ccc(Cc2n[nH]c(=O)c3ccc(-c4c[nH]c5ncccc45)cc23)n1` [Example 13, 4-[(1-methyl-1H-pyrazol-3-yl)methyl]-6-(1H-pyrrolo [2,3-b]pyridin-3-yl)phthalazin-1(2H)-one], 10 to 100 nM.
The result for “4-(2,5-dichlorobenzyl)-6-(1H-pyrrolo[2,3-b]pyridin-3-yl)phthalazin-1(2H)-one [Example 6]” reads above 100 nM; that for `O=c1[nH]nc(Cc2ccccc2)c2cc(-c3c[nH]c4ncccc34)ccc12` [Example 1, 4-benzyl-6-(1H-pyrrolo[2,3-b]pyridin-3-yl)phthalazin-1(2H)-one], below 10 nM; that for `O=c1[nH]nc(Cc2ccccc2)c2cc(-c3cccnc3)ccc12` [Example 4, 4-benzyl-6-(pyridin-3-yl)phthalazin-1(2H)-one], above 100 nM.
Regarding `O=c1[nH]nc(Cc2ccccc2)c2cc(-c3ccncc3)ccc12` [Example 2, 4-benzyl-6-(pyridin-4-yl)phthalazin-1(2H)-one], the Ki was above 100 nM.
Consider `O=c1[nH]nc(Cc2ccccc2)c2cc(-c3cn[nH]c3)ccc12` [Example 3, 4-benzyl-6-(1H-pyrazol-4-yl)phthalazin-1(2H)-one], for which the Ki lay in the range of 10 to 100 nM.
For `CN(C)c1ccc(Cc2n[nH]c(=O)c3ccc(-c4c[nH]c5ncccc45)cc23)cc1` [Example 11, 4-[4-(dimethylamino)benzyl]-6-(1H-pyrrolo[2,3-b]pyridin-3-yl)phthalazin-1(2H)-one] the value was 10 to 100 nM.
For `O=c1[nH]nc(Cc2cccnc2)c2cc(-c3c[nH]c4ncccc34)ccc12` [Example 8, 4-(pyridin-3-ylmethyl)-6-(1H-pyrrolo[2,3-b]pyridin-3-yl)phthalazin-1(2H)-one] the value was below 10 nM.
